We go through four molecules from patent US6140317A, “Pyrrolopyrimidines and processes for their preparation” (Novartis AG, priority 1996, dated 2000).

The target in experiment [1] is T1, EGF-receptor-specific tyrosine protein kinase (EGF-R-PTK; EGF-R ICD) (Homo sapiens, UniProt P00533).
T1 construct: recombinant intracellular domain of the EGF receptor
In words: Inhibition of the EGF-receptor-specific tyrosine kinase (recombinant intracellular domain of the EGF receptor). Format: biochemical. On the procedure: The compounds of formula I inhibit the enzyme activity in comparison with the control without inhibitor by 50% (IC50), for example in a concentration of from 0.001 to 20 μM, especially from 0.01 to 5 μM.
Inhibition of the EGF-receptor-specific Tyrosine Kinase
In accordance with the method mentioned above and using the recombinant intracellular domain of the EGF receptor (Europ. J. Biochem. 207, 265-275 (1992)), the following IC50 values are obtained: […]

The target in experiment [2] is v-abl kinase (Abelson murine leukemia virus, UniProt P00521). Put plainly: Inhibition of the v-abl kinase ([Val5]-angiotensin II and [gamma-32P]-ATP as substrates). Type of experiment: biochemical. The note with it: v-abl tyrosine kinase. The procedure: The above-mentioned inhibition of the v-abl tyrosine kinase is determined in accordance with the methods of N. Lydon et at, Oncogene Research 5, 161-173 (1990) and J. F. Geissler et al., Cancer Research 52, 4492-4498 (1992), with [Val^5 ]-angiotensin II and [γ -^32 P]-ATP being used as substrates.
In accordance with the procedure mentioned above (Oncogene Research 5, 161-173 (1990) and Cancer Research 52, 4492-4498 (1992), the following IC50 values are obtained: […]

Experiment [3] deals with BALB/MK cells. Put plainly: Inhibition of the growth of BALB/MK (mouse keratinocyte) cells in vitro, methylene blue staining. Format: cell-based. The note with it: 72 h, incubated for three days. The procedure:
In a known test method (see Meyer et al., Int. J. Cancer 43, 851 (1989)) the inhibitory action of the compounds of formula I is determined briefly as follows: BALB/MK cells (10 000/microtiter plate well) are transferred to 96-well microtiter plates. The test compounds (dissolved in DMSO) are added in a series of concentrations (dilution series), so that the final concentration of DMSO is no greater than 1% (v/v). After the addition, the plates are incubated for three days, during which time the control cultures without test compound are able to undergo at least three cell division cycles. The growth of the MK cells is measured by means of methylene blue staining: after the incubation the cells are fixed with glutaraldehyde, washed with water and stained with 0.05% methylene blue. After a washing step, the stain is eluted with 3% HCl and the optical density per well of the microtitre plate is measured using a Titertek multiskan at 665 nm. IC50 values are determined by means of a computer-aided system using the formula
IC50 =[(ODtest -ODstart)/(ODcontrol
The IC50 value in those experiments is defined as that concentration of the test compound in question which results in a 50% decrease in the number of cells in comparison with the control without inhibitor.
The growth of BALB/MK cells in the presence of compounds of formula I is tested in accordance with the procedure described above. […]

As a reminder, the IC50 is the point on the concentration scale where inhibition reaches its midpoint.

T1 sequence (P00533 669-1210 limits assumed): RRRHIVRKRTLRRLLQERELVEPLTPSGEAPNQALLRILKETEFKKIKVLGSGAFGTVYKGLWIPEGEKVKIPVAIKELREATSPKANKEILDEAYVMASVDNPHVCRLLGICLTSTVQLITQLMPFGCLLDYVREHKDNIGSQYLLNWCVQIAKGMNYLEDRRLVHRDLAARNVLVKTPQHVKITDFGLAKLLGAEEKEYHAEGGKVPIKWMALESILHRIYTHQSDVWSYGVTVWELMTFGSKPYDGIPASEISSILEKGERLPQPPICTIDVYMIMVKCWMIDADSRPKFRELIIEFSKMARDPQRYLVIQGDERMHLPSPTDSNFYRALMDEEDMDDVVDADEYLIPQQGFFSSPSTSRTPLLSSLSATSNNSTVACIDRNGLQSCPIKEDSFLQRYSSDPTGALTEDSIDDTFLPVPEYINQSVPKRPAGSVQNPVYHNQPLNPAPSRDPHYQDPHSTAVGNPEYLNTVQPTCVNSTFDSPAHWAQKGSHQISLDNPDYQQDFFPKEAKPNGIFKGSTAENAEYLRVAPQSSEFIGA
v-abl kinase, sequence (P00521 whole entry): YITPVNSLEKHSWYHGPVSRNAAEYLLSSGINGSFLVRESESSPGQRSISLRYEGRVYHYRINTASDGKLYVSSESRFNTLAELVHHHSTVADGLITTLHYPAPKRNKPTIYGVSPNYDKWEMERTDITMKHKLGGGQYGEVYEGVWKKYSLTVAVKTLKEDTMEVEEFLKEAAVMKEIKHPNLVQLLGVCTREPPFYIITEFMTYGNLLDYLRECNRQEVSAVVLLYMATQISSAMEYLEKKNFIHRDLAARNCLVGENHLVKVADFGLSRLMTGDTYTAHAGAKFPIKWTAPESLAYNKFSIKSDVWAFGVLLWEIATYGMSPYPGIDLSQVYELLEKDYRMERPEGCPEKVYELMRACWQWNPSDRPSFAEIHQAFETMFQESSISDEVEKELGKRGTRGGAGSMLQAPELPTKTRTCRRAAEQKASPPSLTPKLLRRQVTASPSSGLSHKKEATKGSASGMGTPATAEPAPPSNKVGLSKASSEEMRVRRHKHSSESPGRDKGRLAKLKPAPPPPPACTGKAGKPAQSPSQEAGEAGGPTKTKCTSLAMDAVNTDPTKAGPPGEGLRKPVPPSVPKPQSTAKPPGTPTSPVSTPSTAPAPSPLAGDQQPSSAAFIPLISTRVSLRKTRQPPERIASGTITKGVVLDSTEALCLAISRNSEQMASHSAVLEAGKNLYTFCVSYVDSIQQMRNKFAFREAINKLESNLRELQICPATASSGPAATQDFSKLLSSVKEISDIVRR

For the molecule `Cc1[nH]c2ncnc(N3CCc4ccccc43)c2c1C` [Example 1, 4-(2,3-Dihydroindol-1-yl)-5,6-dimethyl-7H-pyrrolo[2,3-d]pyrimidine], the IC50 in experiment [1] was determined as 1560 nM.

With `Cc1[nH]c2ncnc(N3CCCc4ccccc43)c2c1C` [Example 5, 4-(1,2,3,4-Tetrahydroquinolin-1-yl)-5,6-dimethyl-7H-pyrrolo[2,3-d]pyrimidine], the IC50 in experiment [1] amounted to 2690 nM.

Regarding `Nc1ccc(-c2cc3c(N4CCc5ccccc54)ncnc3[nH]2)cc1` [Example 7, 4-(2,3-Dihydroindol-1-yl)-6-(4-amino-phenyl)-7H-pyrrolo[2,3-d]pyrimidine], the IC50 was determined as 210 nM in experiment [1], 78 nM in experiment [2] and 15800 nM in experiment [3].

As for `Nc1ccc(-c2cc3c(N4CCCc5ccccc54)ncnc3[nH]2)cc1` [Example 11, 4-(1,2,3,4-Tetrahydroquinolin-1-yl)-6-(4amino-phenyl)-7H-pyrrolo[2.3-d]-pyrimidine], the IC50 in experiment [1] was determined as 26 nM; in experiment [2] it was 2 nM; in experiment [3], 760 nM.
